Experimental data: article PMC10838953

What was measured:
BIKE = BIKE (Homo sapiens, UniProt Q9NSY1); assay: biochemical; details: read-out: %Ctrl @ 2000nM
VEGFR2 = VEGFR2 (Homo sapiens, UniProt P35968); assay: biochemical; details: read-out: %Ctrl @ 2000nM
FGFR4 = FGFR4 (Homo sapiens, UniProt P22455); assay: biochemical; details: read-out: %Ctrl @ 2000nM
PCTK2 = PCTK2 (Homo sapiens, UniProt Q00537); assay: biochemical; details: read-out: %Ctrl @ 2000nM
PAK2 = PAK2 (Homo sapiens, UniProt Q13177); assay: biochemical; details: read-out: %Ctrl @ 2000nM
GSK3B = GSK3B (Homo sapiens, UniProt P49841); assay: biochemical; details: read-out: %Ctrl @ 2000nM
TYRO3 = TYRO3 (Homo sapiens, UniProt Q06418); assay: biochemical; details: read-out: %Ctrl @ 2000nM
TYRO3, sequence (Q06418 41-890): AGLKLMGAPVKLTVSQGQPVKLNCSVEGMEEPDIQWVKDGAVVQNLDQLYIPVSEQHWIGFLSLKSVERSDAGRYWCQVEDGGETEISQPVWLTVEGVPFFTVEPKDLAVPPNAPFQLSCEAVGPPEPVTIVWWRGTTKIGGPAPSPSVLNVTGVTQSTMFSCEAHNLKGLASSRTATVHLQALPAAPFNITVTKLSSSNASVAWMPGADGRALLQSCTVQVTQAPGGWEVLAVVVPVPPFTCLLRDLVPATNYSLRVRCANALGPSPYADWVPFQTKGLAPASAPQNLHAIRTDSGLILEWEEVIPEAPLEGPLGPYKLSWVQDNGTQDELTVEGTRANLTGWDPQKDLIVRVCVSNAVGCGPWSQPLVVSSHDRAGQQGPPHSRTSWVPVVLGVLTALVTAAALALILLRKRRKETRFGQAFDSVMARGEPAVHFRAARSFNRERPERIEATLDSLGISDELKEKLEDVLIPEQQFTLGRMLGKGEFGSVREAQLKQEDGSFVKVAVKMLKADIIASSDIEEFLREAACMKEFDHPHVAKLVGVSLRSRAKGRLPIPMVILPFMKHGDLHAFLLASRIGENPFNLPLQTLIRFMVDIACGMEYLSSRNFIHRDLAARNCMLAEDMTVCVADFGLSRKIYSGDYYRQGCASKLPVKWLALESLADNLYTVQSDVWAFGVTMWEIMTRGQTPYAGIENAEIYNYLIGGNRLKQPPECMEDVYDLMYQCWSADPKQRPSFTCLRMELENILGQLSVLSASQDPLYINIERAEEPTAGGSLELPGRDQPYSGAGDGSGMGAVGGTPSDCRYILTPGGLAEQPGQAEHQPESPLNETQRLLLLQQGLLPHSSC

FAK = FAK (Homo sapiens, UniProt Q05397); assay: biochemical; details: read-out: %Ctrl @ 2000nM
INSR = INSR (Homo sapiens, UniProt P06213); assay: biochemical; details: read-out: %Ctrl @ 2000nM
DAPK2 = DAPK2 (Homo sapiens, UniProt Q9UIK4); assay: biochemical; details: read-out: %Ctrl @ 2000nM
MST2 = MST2 (Homo sapiens, UniProt Q13188); assay: biochemical; details: read-out: %Ctrl @ 2000nM
MAP3K4 = MAP3K4 (Homo sapiens, UniProt Q9Y6R4); assay: biochemical; details: read-out: %Ctrl @ 2000nM
PRKD1 = PRKD1 (Homo sapiens, UniProt Q15139); assay: biochemical; details: read-out: %Ctrl @ 2000nM
ULK2 = ULK2 (Homo sapiens, UniProt Q8IYT8); assay: biochemical; details: read-out: %Ctrl @ 2000nM
TNK1 = TNK1 (Homo sapiens, UniProt Q13470); assay: biochemical; details: read-out: %Ctrl @ 2000nM
TRKC = TRKC (Homo sapiens, UniProt Q16288); assay: biochemical; details: read-out: %Ctrl @ 2000nM
EPHB4 = EPHB4 (Homo sapiens, UniProt P54760); assay: biochemical; details: read-out: %Ctrl @ 2000nM
FER = FER (Homo sapiens, UniProt P16591); assay: biochemical; details: read-out: %Ctrl @ 2000nM
RIOK2 = RIOK2 (Homo sapiens, UniProt Q9BVS4); assay: biochemical; details: read-out: %Ctrl @ 2000nM
PIK3CA(E545A) = PIK3CA(E545A) (Homo sapiens, UniProt P42336, E545A); assay: biochemical; details: read-out: %Ctrl @ 2000nM
KIT(A829P) = KIT(A829P) (Homo sapiens, UniProt P10721, A829P); assay: biochemical; details: read-out: %Ctrl @ 2000nM
[1] = target: RSK3(Kin.Dom.2-C-terminal) (Homo sapiens, UniProt Q15349); assay: biochemical; details: read-out: %Ctrl @ 2000nM
RSK3(Kin.Dom.2-C-terminal), sequence (Q15349 389-733 limits assumed): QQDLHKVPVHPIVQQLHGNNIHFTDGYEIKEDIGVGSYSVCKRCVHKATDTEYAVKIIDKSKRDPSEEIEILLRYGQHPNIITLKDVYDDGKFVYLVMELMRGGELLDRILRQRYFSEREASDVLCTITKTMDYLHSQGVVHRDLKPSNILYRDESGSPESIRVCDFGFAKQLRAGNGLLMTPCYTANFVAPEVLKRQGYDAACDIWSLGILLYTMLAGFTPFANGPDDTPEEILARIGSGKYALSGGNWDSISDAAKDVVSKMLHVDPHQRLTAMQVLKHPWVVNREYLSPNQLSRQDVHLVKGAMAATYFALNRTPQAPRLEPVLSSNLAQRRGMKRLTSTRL

DMPK = DMPK (Homo sapiens, UniProt Q09013); assay: biochemical; details: read-out: %Ctrl @ 2000nM
STK36 = STK36 (Homo sapiens, UniProt Q9NRP7); assay: biochemical; details: read-out: %Ctrl @ 2000nM
CIT = CIT (Homo sapiens, UniProt O14578); assay: biochemical; details: read-out: %Ctrl @ 2000nM
TNNI3K = TNNI3K (Homo sapiens, UniProt Q59H18); assay: biochemical; details: read-out: %Ctrl @ 2000nM
CDK4-cyclinD1 = CDK4-cyclinD1 (Homo sapiens, UniProt P11802); assay: biochemical; details: read-out: %Ctrl @ 2000nM
PRKG2 = PRKG2 (Homo sapiens, UniProt Q13237); assay: biochemical; details: read-out: %Ctrl @ 2000nM
BRAF(V600E) = BRAF(V600E) (Homo sapiens, UniProt P15056, V600E); assay: biochemical; details: read-out: %Ctrl @ 2000nM
BRK = BRK (Homo sapiens, UniProt Q13882); assay: biochemical; details: read-out: %Ctrl @ 2000nM
LOK = LOK (Homo sapiens, UniProt O94804); assay: biochemical; details: read-out: %Ctrl @ 2000nM
LOK, sequence (O94804 whole entry): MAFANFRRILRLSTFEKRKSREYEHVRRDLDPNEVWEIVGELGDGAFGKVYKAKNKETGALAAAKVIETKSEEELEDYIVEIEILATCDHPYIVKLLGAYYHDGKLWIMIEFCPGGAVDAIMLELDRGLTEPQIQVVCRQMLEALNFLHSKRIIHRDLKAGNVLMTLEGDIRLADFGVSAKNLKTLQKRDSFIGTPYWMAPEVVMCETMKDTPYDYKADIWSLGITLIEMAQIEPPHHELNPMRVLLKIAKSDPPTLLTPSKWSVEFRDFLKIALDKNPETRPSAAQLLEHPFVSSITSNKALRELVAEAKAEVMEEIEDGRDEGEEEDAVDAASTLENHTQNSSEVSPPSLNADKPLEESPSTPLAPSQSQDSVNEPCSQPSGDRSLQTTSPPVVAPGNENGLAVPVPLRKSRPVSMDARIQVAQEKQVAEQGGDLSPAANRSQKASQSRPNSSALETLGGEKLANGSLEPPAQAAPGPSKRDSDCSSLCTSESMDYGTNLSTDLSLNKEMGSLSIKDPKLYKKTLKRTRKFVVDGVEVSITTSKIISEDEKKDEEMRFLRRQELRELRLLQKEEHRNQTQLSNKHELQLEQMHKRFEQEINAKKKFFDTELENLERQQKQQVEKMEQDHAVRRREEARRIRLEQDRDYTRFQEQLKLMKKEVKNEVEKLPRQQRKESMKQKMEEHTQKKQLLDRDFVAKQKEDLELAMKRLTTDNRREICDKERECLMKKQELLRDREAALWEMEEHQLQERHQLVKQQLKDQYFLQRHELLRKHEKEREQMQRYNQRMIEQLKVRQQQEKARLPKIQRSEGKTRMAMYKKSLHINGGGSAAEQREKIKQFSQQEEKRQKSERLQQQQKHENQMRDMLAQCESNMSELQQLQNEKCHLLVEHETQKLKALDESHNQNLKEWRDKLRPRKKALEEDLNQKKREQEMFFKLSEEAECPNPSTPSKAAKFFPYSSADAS

MRCKB = MRCKB (Homo sapiens, UniProt Q9Y5S2); assay: biochemical; details: read-out: %Ctrl @ 2000nM
MRCKB, sequence (Q9Y5S2 whole entry): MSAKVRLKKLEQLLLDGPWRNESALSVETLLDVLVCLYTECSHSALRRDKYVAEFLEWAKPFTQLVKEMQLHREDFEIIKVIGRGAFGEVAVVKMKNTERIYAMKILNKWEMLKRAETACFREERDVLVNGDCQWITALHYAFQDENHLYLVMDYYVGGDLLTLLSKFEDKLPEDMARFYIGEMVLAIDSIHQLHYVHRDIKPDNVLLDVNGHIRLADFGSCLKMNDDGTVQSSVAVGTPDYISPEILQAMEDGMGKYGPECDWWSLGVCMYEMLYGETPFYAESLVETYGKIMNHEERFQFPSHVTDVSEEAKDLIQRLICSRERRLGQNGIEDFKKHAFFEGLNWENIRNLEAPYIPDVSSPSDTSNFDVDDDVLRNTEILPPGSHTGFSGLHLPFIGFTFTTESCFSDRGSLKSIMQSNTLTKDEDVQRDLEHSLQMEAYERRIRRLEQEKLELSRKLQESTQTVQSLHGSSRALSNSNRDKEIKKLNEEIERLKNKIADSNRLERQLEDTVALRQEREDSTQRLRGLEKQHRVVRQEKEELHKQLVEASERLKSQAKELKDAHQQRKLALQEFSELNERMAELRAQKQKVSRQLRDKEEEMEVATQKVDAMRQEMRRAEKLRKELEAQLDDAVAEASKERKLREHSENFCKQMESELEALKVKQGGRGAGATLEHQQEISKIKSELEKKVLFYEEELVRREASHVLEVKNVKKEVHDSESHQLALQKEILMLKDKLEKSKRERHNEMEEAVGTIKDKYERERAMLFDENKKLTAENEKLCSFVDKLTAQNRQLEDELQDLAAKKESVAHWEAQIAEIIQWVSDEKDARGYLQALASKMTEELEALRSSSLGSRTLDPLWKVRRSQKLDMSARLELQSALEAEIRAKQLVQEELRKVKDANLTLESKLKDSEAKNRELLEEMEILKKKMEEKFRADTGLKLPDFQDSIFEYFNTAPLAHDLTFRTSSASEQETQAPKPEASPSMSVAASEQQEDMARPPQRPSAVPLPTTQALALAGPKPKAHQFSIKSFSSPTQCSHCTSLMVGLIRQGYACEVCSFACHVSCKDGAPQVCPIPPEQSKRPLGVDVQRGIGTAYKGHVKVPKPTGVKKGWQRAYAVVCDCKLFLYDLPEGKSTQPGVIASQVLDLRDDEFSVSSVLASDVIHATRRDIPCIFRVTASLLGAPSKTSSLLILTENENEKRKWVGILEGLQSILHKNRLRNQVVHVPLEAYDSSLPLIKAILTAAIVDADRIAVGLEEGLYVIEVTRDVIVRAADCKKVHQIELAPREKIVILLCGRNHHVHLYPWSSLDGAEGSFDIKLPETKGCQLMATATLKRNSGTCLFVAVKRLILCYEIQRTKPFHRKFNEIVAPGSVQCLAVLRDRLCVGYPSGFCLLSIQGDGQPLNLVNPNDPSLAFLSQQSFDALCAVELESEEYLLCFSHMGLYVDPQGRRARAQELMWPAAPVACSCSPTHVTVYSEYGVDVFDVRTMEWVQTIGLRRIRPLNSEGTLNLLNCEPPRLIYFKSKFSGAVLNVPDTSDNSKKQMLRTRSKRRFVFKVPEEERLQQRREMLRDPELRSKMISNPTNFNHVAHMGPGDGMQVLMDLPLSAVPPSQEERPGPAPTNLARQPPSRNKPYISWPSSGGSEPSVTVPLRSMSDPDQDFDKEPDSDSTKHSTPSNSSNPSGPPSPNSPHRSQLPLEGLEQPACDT

RET = RET (Homo sapiens, UniProt P07949); assay: biochemical; details: read-out: %Ctrl @ 2000nM
LKB1 = LKB1 (Homo sapiens, UniProt Q15831); assay: biochemical; details: read-out: %Ctrl @ 2000nM
LKB1, sequence (Q15831 whole entry): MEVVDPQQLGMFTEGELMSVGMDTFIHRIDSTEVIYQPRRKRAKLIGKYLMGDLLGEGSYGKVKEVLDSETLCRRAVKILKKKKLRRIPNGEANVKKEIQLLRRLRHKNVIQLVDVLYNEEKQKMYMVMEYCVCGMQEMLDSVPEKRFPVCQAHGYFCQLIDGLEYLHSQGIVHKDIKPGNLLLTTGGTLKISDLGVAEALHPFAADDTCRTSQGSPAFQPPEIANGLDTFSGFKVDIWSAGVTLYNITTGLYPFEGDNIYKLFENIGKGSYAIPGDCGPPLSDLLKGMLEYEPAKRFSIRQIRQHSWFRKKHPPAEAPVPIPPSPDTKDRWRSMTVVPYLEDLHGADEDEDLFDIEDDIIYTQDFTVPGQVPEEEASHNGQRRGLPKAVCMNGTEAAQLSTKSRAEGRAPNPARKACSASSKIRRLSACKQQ

p21 (T145) = details: HEK293 cells; 48 h
PLK2 = PLK2 (Homo sapiens, UniProt Q9NYY3); assay: biochemical; details: read-out: %Ctrl @ 2000nM
IRAK3 = IRAK3 (Homo sapiens, UniProt Q9Y616); assay: biochemical; details: read-out: %Ctrl @ 2000nM
MAST1 = MAST1 (Homo sapiens, UniProt Q9Y2H9); assay: biochemical; details: read-out: %Ctrl @ 2000nM
LATS2 = LATS2 (Homo sapiens, UniProt Q9NRM7); assay: biochemical; details: read-out: %Ctrl @ 2000nM
CDC2L2 = CDC2L2 (Homo sapiens, UniProt Q9UQ88); assay: biochemical; details: read-out: %Ctrl @ 2000nM
SNRK = SNRK (Homo sapiens, UniProt Q9NRH2); assay: biochemical; details: read-out: %Ctrl @ 2000nM
JNK3 = JNK3 (Homo sapiens, UniProt P53779); assay: biochemical; details: read-out: %Ctrl @ 2000nM
JNK3, sequence (P53779 whole entry): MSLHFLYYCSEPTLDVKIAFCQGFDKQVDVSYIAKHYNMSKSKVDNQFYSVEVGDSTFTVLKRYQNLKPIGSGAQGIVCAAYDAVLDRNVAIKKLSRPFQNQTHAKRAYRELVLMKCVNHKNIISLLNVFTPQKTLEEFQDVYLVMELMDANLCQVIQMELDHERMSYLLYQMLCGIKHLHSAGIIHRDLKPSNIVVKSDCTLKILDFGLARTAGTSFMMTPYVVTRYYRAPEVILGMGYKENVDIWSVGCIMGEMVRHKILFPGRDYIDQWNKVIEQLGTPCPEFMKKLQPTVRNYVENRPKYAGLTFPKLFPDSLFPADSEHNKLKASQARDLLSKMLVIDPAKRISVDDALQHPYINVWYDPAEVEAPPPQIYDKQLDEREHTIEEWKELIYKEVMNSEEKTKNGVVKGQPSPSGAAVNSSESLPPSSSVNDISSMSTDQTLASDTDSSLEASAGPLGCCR

MEK3 = MEK3 (Homo sapiens, UniProt P46734); assay: biochemical; details: read-out: %Ctrl @ 2000nM

Structure (SMILES): CC(C)COC(=O)c1[nH]c2ccc(F)cc2c1-c1cn(CC2CCN(CCNS(=O)(=O)c3ccc(CC(C)C)cc3)CC2)nn1 [AB668, isobutyl 5-fluoro-3-(1-((1-(2-((4-isobutylphenyl)sulfonamido)ethyl)piperidin-4-yl)methyl)-1H-1,2,3-triazol-4-yl)-1H-indole-2-carboxylate]
- remaining activity at 2 µM (BIKE): 99%
- remaining activity at 2 µM (VEGFR2): 98%
- remaining activity at 2 µM (FGFR4): 82%
- remaining activity at 2 µM (PCTK2): 96%
- remaining activity at 2 µM (PAK2): 81%
- remaining activity at 2 µM (GSK3B): 100%
- remaining activity at 2 µM (TYRO3): 100%
- remaining activity at 2 µM (FAK): 91%
- remaining activity at 2 µM (INSR): 97%
- remaining activity at 2 µM (DAPK2): 71%
- remaining activity at 2 µM (MST2): 97%
- remaining activity at 2 µM (MAP3K4): 90%
- remaining activity at 2 µM (PRKD1): 100%
- remaining activity at 2 µM (ULK2): 100%
- remaining activity at 2 µM (TNK1): 96%
- remaining activity at 2 µM (TRKC): 100%
- remaining activity at 2 µM (EPHB4): 79%
- remaining activity at 2 µM (FER): 100%
- remaining activity at 2 µM (RIOK2): 73%
- remaining activity at 2 µM (PIK3CA(E545A)): 100%
- remaining activity at 2 µM (KIT(A829P)): 78%
- remaining activity at 2 µM [1]: 85%
- remaining activity at 2 µM (DMPK): 90%
- remaining activity at 2 µM (STK36): 100%
- remaining activity at 2 µM (CIT): 88%
- remaining activity at 2 µM (TNNI3K): 96%
- remaining activity at 2 µM (CDK4-cyclinD1): 84%
- remaining activity at 2 µM (PRKG2): 97%
- remaining activity at 2 µM (BRAF(V600E)): 100%
- remaining activity at 2 µM (BRK): 72%
- remaining activity at 2 µM (LOK): 100%
- remaining activity at 2 µM (MRCKB): 90%
- remaining activity at 2 µM (RET): 87%
- remaining activity at 2 µM (LKB1): 89%
- p21 phosphorylation (p21 (T145)): weakly affected
- remaining activity at 2 µM (PLK2): 87%
- remaining activity at 2 µM (IRAK3): 86%
- remaining activity at 2 µM (MAST1): 100%
- remaining activity at 2 µM (LATS2): 89%
- remaining activity at 2 µM (CDC2L2): 94%
- remaining activity at 2 µM (SNRK): 100%
- remaining activity at 2 µM (JNK3): 92%
- remaining activity at 2 µM (MEK3): 100%
